Laboratory results published in ChEMBL document CHEMBL3272271, “Folate antagonists. 13. 2,4-Diamino-6-](alpha,alpha,alpha-trifluoro-m-tolyl)thio]quinazoline and related 2,4-diamino-6-[(phenyl- and naphthyl)thio]quinazolines, a unique class of antimetabolites with extraordinary antimalarial and antibacterial effects” (J Med Chem, 1978).
Converted amounts (≈) assume the structure as drawn. The source made the active and inactive calls. The rule behind the calls is not given here.

Tests used:
[1] = system: Mycobacterium tuberculosis; test: Antibacterial activity against Mycobacterium tuberculosis H37Ra by gradient plate test; assay type: functional
Staphylococcus aureus [2] = test: Antibacterial activity against Staphylococcus aureus UC-96 by gradient plate test; assay type: functional
Plasmodium berghei [3] = test: Antimalarial activity against Plasmodium berghei infected in mouse assessed as disease cure from parasite infection at 160 mg/kg, sc administered 72 hrs after infection; assay type: functional, organism-based; design: dose 160 mg/kg
Plasmodium berghei [4] = test: Antimalarial activity against Plasmodium berghei infected in mouse assessed as disease cure from parasite infection at 80 mg/kg, sc administered 72 hrs after infection; assay type: functional, organism-based; design: dose 80 mg/kg
Plasmodium berghei [5] = test: Antimalarial activity against Plasmodium berghei infected in mouse assessed as increase in mean survival days of host at 40 mg/kg, sc administered 72 hrs after infection relative to control; assay type: functional; conditions: route subcutaneous
Plasmodium berghei [6] = test: Antimalarial activity against Plasmodium berghei infected in mouse assessed as increase in mean survival days of host at 160 mg/kg, sc administered 72 hrs after infection relative to control; assay type: functional; conditions: route subcutaneous
Staphylococcus aureus [7] = test: Antibacterial activity against drug-resistant Staphylococcus aureus S18713 by gradient plate test; assay type: functional
Pseudomonas aeruginosa = test: Antibacterial activity against Pseudomonas aeruginosa 28 by gradient plate test; assay type: functional
Escherichia coli = test: Antibacterial activity against Escherichia coli Vogel by gradient plate test; assay type: functional
Plasmodium berghei [8] = test: Antimalarial activity against Plasmodium berghei infected in mouse assessed as increase in mean survival days of host at 320 mg/kg, sc administered 72 hrs after infection relative to control; assay type: functional; conditions: route subcutaneous
Plasmodium berghei [9] = test: Antimalarial activity against Plasmodium berghei infected in mouse assessed as disease cure from parasite infection at 40 mg/kg, sc administered 72 hrs after infection; assay type: functional, organism-based; design: dose 40 mg/kg
Plasmodium berghei [10] = test: Antimalarial activity against Plasmodium berghei infected in mouse assessed as increase in mean survival days of host at 80 mg/kg, sc administered 72 hrs after infection relative to control; assay type: functional; conditions: route subcutaneous
Shigella sonnei = test: Antibacterial activity against Shigella sonnei C-10 by gradient plate test; assay type: functional
Plasmodium berghei [11] = test: Antimalarial activity against Plasmodium berghei infected in mouse assessed as increase in mean survival days of host at 640 mg/kg, sc administered 72 hrs after infection relative to control; assay type: functional; conditions: route subcutaneous
Plasmodium berghei [12] = test: Antimalarial activity against Plasmodium berghei infected in mouse assessed as disease cure from parasite infection at 640 mg/kg, sc administered 72 hrs after infection; assay type: functional, organism-based; design: dose 640 mg/kg
Plasmodium berghei [13] = test: Antimalarial activity against Plasmodium berghei infected in mouse assessed as disease cure from parasite infection at 320 mg/kg, sc administered 72 hrs after infection; assay type: functional, organism-based; design: dose 320 mg/kg
Enterococcus faecalis = test: Antibacterial activity against Streptococcus faecalis MGH-2 by gradient plate test; assay type: functional
Plasmodium berghei [14] = test: Antimalarial activity against Plasmodium berghei infected in mouse assessed as increase in mean survival days of host at 20 mg/kg, sc administered 72 hrs after infection relative to control; assay type: functional; conditions: route subcutaneous
Plasmodium gallinaceum [15] = test: Antimalarial activity against sporozoite-induced Plasmodium gallinaceum infected in white leghorn chicken assessed as disease cure from parasite infection at 15 mg/kg, sc administered 72 hrs after infection; assay type: functional, organism-based; design: dose 15 mg/kg
Plasmodium berghei [16] = test: Antimalarial activity against trophozoite-induced Plasmodium berghei infected in mouse assessed as daily dose required to suppression of 90% parasite infection administered with diet for 6 days; assay type: functional
Plasmodium gallinaceum [17] = test: Antimalarial activity against sporozoite-induced Plasmodium gallinaceum infected in white leghorn chicken assessed as disease cure from parasite infection at 480 mg/kg, sc administered 72 hrs after infection; assay type: functional, organism-based; design: dose 480 mg/kg
Plasmodium berghei [18] = test: Antimalarial activity against Plasmodium berghei infected in mouse assessed as increase in mean survival days of host at 10 mg/kg, sc administered 72 hrs after infection relative to control; assay type: functional; conditions: route subcutaneous
Plasmodium berghei [19] = test: Antimalarial activity against Plasmodium berghei infected in mouse assessed as increase in mean survival days of host at 1.25 mg/kg, sc administered 72 hrs after infection relative to control; assay type: functional; conditions: route subcutaneous
Plasmodium gallinaceum [20] = test: Antimalarial activity against trophozoite-induced Plasmodium gallinaceum infected in white leghorn chicken assessed as increase in mean survival days of host at 1.25 mg/kg, sc administered 72 hrs after infection relative to control; assay type: functional; conditions: route subcutaneous
Plasmodium berghei [21] = test: Antimalarial activity against Plasmodium berghei infected in mouse assessed as increase in mean survival days of host at 2.5 mg/kg, sc administered 72 hrs after infection relative to control; assay type: functional; conditions: route subcutaneous
Plasmodium berghei [22] = test: Antimalarial activity against Plasmodium berghei infected in mouse assessed as disease cure from parasite infection at 20 mg/kg, sc administered 72 hrs after infection; assay type: functional, organism-based; design: dose 20 mg/kg
Plasmodium berghei [23] = test: Ratio of quinine hydrochloride SD90 to compound SD90 for trophozoite-induced Plasmodium berghei infected in mouse assessed as daily dose required to suppression of 90% parasite infection administered with diet for 6 days; assay type: functional
Plasmodium gallinaceum [24] = test: Antimalarial activity against trophozoite-induced Plasmodium gallinaceum infected in white leghorn chicken assessed as increase in mean survival days of host at 5 mg/kg, sc administered 72 hrs after infection relative to control; assay type: functional; conditions: route subcutaneous
Plasmodium gallinaceum [25] = test: Antimalarial activity against sporozoite-induced Plasmodium gallinaceum infected in white leghorn chicken assessed as disease cure from parasite infection at 240 mg/kg, sc administered 72 hrs after infection; assay type: functional, organism-based; design: dose 240 mg/kg
Plasmodium gallinaceum [26] = test: Antimalarial activity against sporozoite-induced Plasmodium gallinaceum infected in white leghorn chicken assessed as disease cure from parasite infection at 120 mg/kg, sc administered 72 hrs after infection; assay type: functional, organism-based; design: dose 120 mg/kg
Plasmodium berghei [27] = test: Antimalarial activity against cycloguanil-resistant Plasmodium berghei assessed as drug resistance; assay type: functional, organism-based
Plasmodium gallinaceum [28] = test: Antimalarial activity against trophozoite-induced Plasmodium gallinaceum infected in white leghorn chicken assessed as increase in mean survival days of host at 2.5 mg/kg, sc administered 72 hrs after infection relative to control; assay type: functional; conditions: route subcutaneous
Plasmodium gallinaceum [29] = test: Antimalarial activity against trophozoite-induced Plasmodium gallinaceum infected in white leghorn chicken assessed as increase in mean survival days of host at 20 mg/kg, sc administered 72 hrs after infection relative to control; assay type: functional; conditions: route subcutaneous
Plasmodium gallinaceum [30] = test: Antimalarial activity against trophozoite-induced Plasmodium gallinaceum infected in white leghorn chicken assessed as increase in mean survival days of host at 10 mg/kg, sc administered 72 hrs after infection relative to control; assay type: functional; conditions: route subcutaneous
Plasmodium berghei [31] = test: Antimalarial activity against chloroquine-resistant Plasmodium berghei assessed as drug resistance; assay type: functional, organism-based
Plasmodium gallinaceum [32] = test: Antimalarial activity against sporozoite-induced Plasmodium gallinaceum infected in white leghorn chicken assessed as disease cure from parasite infection at 30 mg/kg, sc administered 72 hrs after infection; assay type: functional, organism-based; design: dose 30 mg/kg
Plasmodium berghei [33] = test: Antimalarial activity against Plasmodium berghei infected in mouse assessed as disease cure from parasite infection at 10 mg/kg, sc administered 72 hrs after infection; assay type: functional, organism-based; design: dose 10 mg/kg
Plasmodium gallinaceum [34] = test: Antimalarial activity against trophozoite-induced Plasmodium gallinaceum infected in white leghorn chicken assessed as increase in mean survival days of host at 40 mg/kg, sc administered 72 hrs after infection relative to control; assay type: functional; conditions: route subcutaneous
Plasmodium berghei [35] = test: Antimalarial activity against Plasmodium berghei infected in mouse assessed as increase in mean survival days of host at 5 mg/kg, sc administered 72 hrs after infection relative to control; assay type: functional; conditions: route subcutaneous
Plasmodium gallinaceum [36] = test: Antimalarial activity against sporozoite-induced Plasmodium gallinaceum infected in white leghorn chicken assessed as disease cure from parasite infection at 7.5 mg/kg, sc administered 72 hrs after infection; assay type: functional, organism-based; design: dose 7.5 mg/kg
Plasmodium gallinaceum [37] = test: Antimalarial activity against sporozoite-induced Plasmodium gallinaceum infected in white leghorn chicken assessed as disease cure from parasite infection at 60 mg/kg, sc administered 72 hrs after infection; assay type: functional, organism-based; design: dose 60 mg/kg

Question: What does the source list for `Nc1nc(N)c2c(Cl)c(Sc3ccccc3Cl)ccc2n1`?
Answer: MIC [1]: > 25 µg/mL; MIC (Staphylococcus aureus [2]): < 0.25 µg/mL; Activity (Plasmodium berghei [3]): Active; Activity (Plasmodium berghei [4]): Active; MST (Plasmodium berghei [5]): 10.2 days; MST (Plasmodium berghei [6]): 14.9 days; MIC (Staphylococcus aureus [7]): < 0.25 µg/mL; MIC (Pseudomonas aeruginosa): > 25 µg/mL; MIC (Escherichia coli): < 0.25 µg/mL; MST (Plasmodium berghei [8]): 24.4 days; Activity (Plasmodium berghei [9]): Active; MST (Plasmodium berghei [10]): 11.7 days; MIC (Shigella sonnei): 1 µg/mL (≈ 2.97 µM); MST (Plasmodium berghei [11]): 24.9 days; Activity (Plasmodium berghei [12]): Active; Activity (Plasmodium berghei [13]): Active; MIC (Enterococcus faecalis): < 0.25 µg/mL; MST (Plasmodium berghei [14]): 4.7 days

Question: For `Nc1nc(N)c2cc(Sc3ccc(Br)cc3)ccc2n1`, which Activity (Plasmodium gallinaceum [15]) is on record?
Answer: Active

Question: And the SD90 (Plasmodium berghei [16])?
Answer: 1.2 mg/kg/day

Question: What about the Activity (Plasmodium gallinaceum [17]) of the same compound?
Answer: Active

Question: What about the MST (Plasmodium berghei [18]) of the same compound?
Answer: 19.6 days

Question: What about the MST (Plasmodium berghei [19]) of the same compound?
Answer: 2.2 days

Question: What about the MIC (Staphylococcus aureus [2]) of the same compound?
Answer: < 0.25 µg/mL

Question: And the MST (Plasmodium gallinaceum [20])?
Answer: 3 days

Question: What about the MST (Plasmodium berghei [21]) of the same compound?
Answer: 3.6 days

Question: What about the Activity (Plasmodium berghei [22]) of the same compound?
Answer: Active

Question: And the Activity (Plasmodium berghei [3])?
Answer: Active

Question: And the Ratio (Plasmodium berghei [23])?
Answer: 62

Question: What about the MST (Plasmodium gallinaceum [24]) of the same compound?
Answer: 7.2 days

Question: And the Activity (Plasmodium berghei [4])?
Answer: Active

Question: And the Activity (Plasmodium gallinaceum [25])?
Answer: Active

Question: What about the MIC (Staphylococcus aureus [7]) of the same compound?
Answer: < 0.25 µg/mL

Question: And the Activity (Plasmodium gallinaceum [26])?
Answer: Active

Question: And the Activity (Plasmodium berghei [27])?
Answer: Active

Question: What about the MST (Plasmodium gallinaceum [28]) of the same compound?
Answer: 6 days

Question: What about the MST (Plasmodium gallinaceum [29]) of the same compound?
Answer: 11.8 days

Question: And the MIC (Pseudomonas aeruginosa)?
Answer: > 25 µg/mL

Question: And the MST (Plasmodium gallinaceum [30])?
Answer: 8.2 days

Question: What about the MIC (Escherichia coli) of the same compound?
Answer: 1 µg/mL (≈ 2.88 µM)

Question: And the Activity (Plasmodium berghei [31])?
Answer: inactive

Question: And the Activity (Plasmodium berghei [9])?
Answer: Active

Question: And the Activity (Plasmodium gallinaceum [32])?
Answer: Active

Question: And the Activity (Plasmodium berghei [33])?
Answer: Active

Question: And the MIC (Shigella sonnei)?
Answer: 2 µg/mL (≈ 5.76 µM)

Question: What about the MST (Plasmodium gallinaceum [34]) of the same compound?
Answer: 12.8 days

Question: What about the Activity (Plasmodium berghei [12]) of the same compound?
Answer: Active

Question: What about the MST (Plasmodium berghei [35]) of the same compound?
Answer: 6.7 days

Question: And the Activity (Plasmodium berghei [13])?
Answer: Active

Question: What about the MIC (Enterococcus faecalis) of the same compound?
Answer: < 0.25 µg/mL

Question: What about the MST (Plasmodium berghei [14]) of the same compound?
Answer: 14.4 days

Question: And the Activity (Plasmodium gallinaceum [36])?
Answer: Active

Question: And the Activity (Plasmodium gallinaceum [37])?
Answer: Active
